ChEMBL document CHEMBL5247585, “Design, synthesis, and evaluation of 4(1H)-quinolinone and urea derivatives as KRASG12C inhibitors with potent antitumor activity against KRAS-mutant non-small cell lung cancer” (Eur J Med Chem, 2022)
Each block holds one molecule with its values, some of them ahead of it. The source made the active and inactive calls. The rule behind the calls is not given here.

Legend:
[1] = test system: NCI-H358; assay: Antiproliferative activity against human NCI-H358 cells harboring KRAS G12C mutant assessed as reduction in cell viability incubated for 72 hrs by MTT assay; type: functional, cell-based; details: NCI-H358, 72 h
[2] = test system: NCI-H23; assay: Antiproliferative activity against human NCI-H23 cells harboring KRAS G12C mutant assessed as reduction in cell viability incubated for 72 hrs by MTT assay; type: functional, cell-based; details: NCI-H23, 72 h
[3] = test system: A549; assay: Antiproliferative activity against human A549 cells harboring KRAS G12S mutant assessed as reduction in cell viability incubated for 72 hrs by MTT assay; type: functional, cell-based; details: A549, 72 h
[4] = test system: NCI-H2228; assay: Antiproliferative activity against human NCI-H2228 cells harboring wild type KRAS assessed as reduction in cell viability incubated for 72 hrs by MTT assay; type: functional, cell-based; details: NCI-H2228, 72 h
[5] = Selectivity index, ratio of IC50 for human A549 cells harboring KRAS G12S mutant to IC50 for human NCI-H358 cells harboring KRAS G12C mutant; type: functional
[6] = Selectivity index, ratio of IC50 for human NCI-H2228 cells harboring wild type KRAS to IC50 for human NCI-H358 cells harboring KRAS G12C mutant; type: functional
[7] = Selectivity index, ratio of IC50 for human A549 cells harboring KRAS G12S mutant to IC50 for human NCI-H23 cells harboring KRAS G12C mutant; type: functional
[8] = Selectivity index, ratio of IC50 for human NCI-H2228 cells harboring wild type KRAS to IC50 for human NCI-H23 cells harboring KRAS G12C mutant; type: functional
[9] = test system: SK-LU-1; assay: Antiproliferative activity against human SK-LU-1 cells harboring KRAS G12D mutant assessed as reduction in cell viability incubated for 72 hrs by MTT assay; type: functional, cell-based; details: SK-LU-1, 72 h
[10] = test system: NCI-H441; assay: Antiproliferative activity against human NCI-H441 cells harboring KRAS G12V mutant assessed as reduction in cell viability incubated for 72 hrs by MTT assay; type: functional, cell-based; details: NCI-H441, 72 h
[11] = Cytotoxicity against human MRC5 cells assessed as reduction in cell viability incubated for 72 hrs by MTT assay; type: toxicity, cell-based
[12] = Selectivity index, ratio of IC50 for human MRC5 cells to IC50 for human NCI-H358 cells harboring KRAS G12C mutant
[13] = test system: GTPase KRas (Homo sapiens), P01116 [G12C]; assay: Covalent binding affinity to 6His tagged GDP bound human KRAS G12C mutant (1 to 169 residues) expressed in Escherichia coli BL21 (DE3) cells at 200 uM incubated for 24 hrs by LC-MS /MS analysis
[14] = target: GTPase KRas (Homo sapiens) (UniProt P01116); assay: Covalent binding affinity to 6his tagged GDP bound human wildtype KRAS expressed in Escherichia coli BL21 (DE3) cells at 200 uM incubated for 24 hrs by LC-MS/MS analysis
[15] = test system: GTPase KRas (Homo sapiens), P01116 [G12C]; assay: (§1) Inhibition of 6His tagged Mant-GDP loaded human KRAS G12C mutant (1 to 169 residues) expressed in Escherichia coli BL21 (DE3) cells assessed as inhibition of SOS1-mediated nucleotide exchange at 10 uM preincubated with compound for 1 hrs followed by addition of GTP and SOS1 protein and measured every 90 sec for 2 hrs by fluorescence based assay; details: time 3.0 hrs
[16] = test system: GTPase KRas (Homo sapiens), P01116 [G12C]; assay: as §1, with “[…]” for “SOS1-mediated”, “EDTA” for “SOS1 protein”; details: time 3.0 hrs
[17] = target: GTPase KRas (Homo sapiens) (UniProt P01116); assay: Inhibition of KRAS signaling in human NCI-H2228 cells harboring wildtype KRAS at 0.5 to 8 uM incubated for 6 hrs by Western blot analysis; type: cell-based; details: dose 0.5-8 µM
[18] = test system: NCI-H358; assay: Inhibition of KRAS signaling in human NCI-H358 cells harboring KRAS G12C mutant assessed as decrease in ERK phosphorylation level at 0.5 to 8 uM incubated for 6 hrs by Western blot analysis relative to control; type: cell-based; details: dose 0.5-8 µM
[19] = test system: NCI-H358; assay: Inhibition of KRAS signaling in human NCI-H358 cells harboring KRAS G12C mutant assessed as decrease in AKT phosphorylation level at 0.5 to 8 uM incubated for 6 hrs by Western blot analysis relative to control; type: cell-based; details: dose 0.5-8 µM
[20] = test system: NCI-H358; assay: Induction of apoptosis in human NCI-H358 cells assessed as fold change in cleaved caspase-3 level at 0.5 to 8 uM incubated for 6 hrs by Western blot analysis; type: functional; details: dose 0.5-8 µM
[21] = test system: NCI-H358; assay: Antitumor activity against human NCI-H358 cells harboring KRAS G12C mutant xenografted in BALB/c mouse assessed as tumor growth inhibition at 15 mg/kg, ip administered for 21 days; type: functional; details: NCI-H358, 504 h, time 21 day, read-out: TGI
[22] = Toxicity in BALB/c mouse xenografted with human NCI-H358 cells harboring KRAS G12C mutant assessed as effect on body weight at 10 to 15 mg/kg, ip administered for 21 days; type: organism-based; details: in vivo, 504 h, dose 10-15 mg/kg, time 21 day
[23] = test system: NCI-H358; assay: Antitumor activity against human NCI-H358 cells harboring KRAS G12C mutant xenografted in BALB/c mouse assessed as tumor growth inhibition at 10 mg/kg, ip administered for 21 days; type: functional, organism-based; details: time 21.0 day
[24] = test system: NCI-H358; assay: Antitumor activity against human NCI-H358 cells harboring KRAS G12C mutant xenografted in BALB/c mouse assessed as reduction in tumor growth at 10 to 15 mg/kg, ip administered for 21 days by Ki67 staining based analysis; type: functional, organism-based; details: dose 10-15 mg/kg, time 21.0 day
[25] = test system: NCI-H358; assay: Antitumor activity against human NCI-H358 cells harboring KRAS G12C mutant xenografted in BALB/c mouse assessed as increase in cleaved caspase-3 level at 10 to 15 mg/kg, ip administered for 21 days by IHC staining analysis; type: functional, organism-based; details: dose 10-15 mg/kg, time 21.0 day
[26] = test system: GTPase KRas (Homo sapiens), P01116 [G12C]; assay: In vivo inhibition of KRAS signaling in BALB/C mouse xenografted with human NCI-H358 cells harboring KRAS G12C mutant assessed as decrease in ERK phosphorylation in tumor at 10 to 15 mg/kg, ip administered for 21 days by IHC staining based analysis; type: functional, organism-based; details: dose 10-15 mg/kg, time 21.0 day

IC50 [1]: 9.1 µM
IC50 [2]: 6.4 µM
IC50 [3]: 11.9 µM
IC50 [4]: 19.4 µM
Compound: C=CS(=O)(=O)NC1CCN(C(=O)c2cc(=O)c3cc(Cl)c(I)cc3[nH]2)CC1
Ratio IC50 [5]: 2
Ratio IC50 [6]: 2
Ratio IC50 [7]: 2
Ratio IC50 [8]: 2

IC50 [1]: 22.8 µM
IC50 [2]: 28.9 µM
IC50 [3]: > 100 µM
IC50 [4]: 38.2 µM
Compound: C=CC(=O)N1CC[C@H](NC(=O)Nc2ccc(Cl)c(C(F)(F)F)c2)C1

IC50 [1]: 0.5 µM
IC50 [2]: 1.3 µM
IC50 [3]: 9.3 µM
IC50 [4]: 11.6 µM
IC50 [9]: 4.6 µM
IC50 [10]: 4.4 µM
Ratio IC50 [12]: 12
Activity [13]: Active
Activity [14]: inactive
inhibition [15]: Active
inhibition [16]: inactive
inhibition [17]: inactive
inhibition [26]: Active
Compound: O=C(CCl)N1CCN(C(=O)Nc2ccc(Cl)c(-c3ccccc3F)c2)CC1
Ratio IC50 [5]: 7
Ratio IC50 [6]: 7
Ratio IC50 [7]: 7
Ratio IC50 [8]: 7
IC50 at 72 h [11]: 6.1 µM
inhibition [18]: 40%
inhibition [19]: 30%
fold change (FC) [20]: 2
inhibition in vivo at 15 mg/kg [21]: 50%
Activity [22]: Non-Toxic
TGI [23]: Active
Activity [24]: Active
Activity [25]: Active

IC50 [1]: > 100 µM
IC50 [2]: > 100 µM
IC50 [3]: > 100 µM
IC50 [4]: > 100 µM
Compound: C=CC(=O)N1CC[C@H](NC(=O)Nc2ccc(Cl)cc2)C1

IC50 [1]: 29.7 µM
IC50 [2]: 34.8 µM
IC50 [3]: > 100 µM
IC50 [4]: > 100 µM
Compound: C=CC(=O)NC1CCN(C(=O)c2cc(=O)c3cc(Cl)ccc3[nH]2)CC1

IC50 [1]: 2.4 µM
IC50 [2]: 1.5 µM
IC50 [3]: 11.3 µM
IC50 [4]: 7.3 µM
Compound: O=C(Nc1ccc(Cl)c(C(F)(F)F)c1)N[C@H]1CCN(C(=O)CCl)C1
Ratio IC50 [5]: 3
Ratio IC50 [6]: 3
Ratio IC50 [7]: 3
Ratio IC50 [8]: 3

IC50 [1]: > 100 µM
IC50 [2]: > 100 µM
IC50 [3]: > 100 µM
IC50 [4]: > 100 µM
Compound: C=CC(=O)N1CC[C@@H](NC(=O)Nc2ccc(Cl)cc2)C1

IC50 [1]: 4.2 µM
IC50 [2]: 2.6 µM
IC50 [3]: 3.3 µM
IC50 [4]: 6.4 µM
Compound: C=CS(=O)(=O)N1CCC(NC(=O)Nc2ccc(Cl)c(C(F)(F)F)c2)CC1

IC50 [1]: 14.9 µM
IC50 [2]: 10.3 µM
IC50 [3]: 24.4 µM
IC50 [4]: 13.1 µM
Compound: C=CC(=O)N1CC[C@H](NC(=O)c2cc(=O)c3cc(Cl)c(I)cc3[nH]2)C1

IC50 [1]: > 100 µM
IC50 [2]: > 100 µM
IC50 [3]: > 100 µM
IC50 [4]: 53.2 µM
Compound: C=CC(=O)N1CCC(NC(=O)Nc2ccc(Cl)c(Cl)c2)CC1

IC50 [1]: 18.5 µM
IC50 [2]: 8.2 µM
IC50 [3]: 46.2 µM
IC50 [4]: 42.4 µM
Compound: C=CC(=O)NC1CCN(C(=O)c2cc(=O)c3cc(Cl)c(C(F)(F)F)cc3[nH]2)CC1

IC50 [1]: 5.5 µM
IC50 [2]: 4.8 µM
IC50 [3]: 7.4 µM
IC50 [4]: 9.2 µM
Compound: O=C(Nc1ccc(Cl)c(Cl)c1)NC1CCN(C(=O)CCl)CC1

IC50 [1]: 31.9 µM
IC50 [2]: 18.9 µM
IC50 [3]: > 100 µM
IC50 [4]: 27.5 µM
Compound: C=CS(=O)(=O)N1CCC(NC(=O)Nc2ccc(Cl)cc2)CC1

IC50 [1]: 27.8 µM
IC50 [2]: 31.1 µM
IC50 [3]: 66.9 µM
IC50 [4]: > 100 µM
Compound: COc1cccc(F)c1-c1cc(NC(=O)NC2CCN(C(=O)CCl)CC2)ccc1Cl

IC50 [1]: 4.6 µM
IC50 [2]: 9.2 µM
IC50 [3]: 1.5 µM
IC50 [4]: 0.6 µM
Compound: O=C(CCl)N1CCN(C(=O)Nc2ccc(Cl)c(C(F)(F)F)c2)CC1
